Laboratory results: patent US20250205342A1, “IRAK DEGRADERS AND USES THEREOF” (Kymera Therapeutics, Inc., priority 2022, published 2025)

How the values were obtained:
IRAK4 [1] = target: T1, IRAK4 (Homo sapiens, UniProt Q9NWZ3); assay: hPBMC IRAK4 degradation flow assay (monocytes); type: cell-based; set-up: endogenous in cells; host or cells: human PBMCs (monocytes, CD14 positive gate); settings: CD14 positive monocytes, 20 h, read-out: hPBMC monocyte DC50 at 20 h
T1 sequence (Q9NWZ3 1-460): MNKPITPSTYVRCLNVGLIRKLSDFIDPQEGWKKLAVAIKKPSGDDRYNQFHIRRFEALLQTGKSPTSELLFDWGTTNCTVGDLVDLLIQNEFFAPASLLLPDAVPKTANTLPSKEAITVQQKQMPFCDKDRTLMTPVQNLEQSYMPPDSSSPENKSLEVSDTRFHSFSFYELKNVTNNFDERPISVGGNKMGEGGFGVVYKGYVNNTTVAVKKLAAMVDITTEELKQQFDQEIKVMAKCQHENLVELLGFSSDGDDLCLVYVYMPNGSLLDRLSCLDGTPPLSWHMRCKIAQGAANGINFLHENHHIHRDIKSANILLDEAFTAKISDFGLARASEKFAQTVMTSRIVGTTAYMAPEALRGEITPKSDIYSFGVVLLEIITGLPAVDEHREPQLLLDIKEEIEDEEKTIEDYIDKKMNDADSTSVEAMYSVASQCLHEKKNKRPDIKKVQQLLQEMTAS
Description: In the hPBMC IRAK4 degradation flow assay, frozen PBMCs were thawed into RPMI with 10% FBS and allowed to recover. On the same day as thawed, PBMCs were plated in 96 well plate, 90 μL per well. Compound plates were prepared and a 10 point, 5-fold dilution was performed with a final DMSO concentration of 0.1%. Compound 10 μL per well was added, sealed and incubated at 37° C., 5% CO2 for 20 hours (for 4 hour treatment, compounds were prepared and added the following day). Following the treatment incubation period (day 1), 1.6% PFA was added to PBMC plate and placed on plate shaker for 30 seconds and incubated for 10 mins at room temperature. Cells were spun down and washed two times with PBS/0.5% BSA, aspirated to pellet and placed into −80° C. freezer until further processing for flow. On the flow run day, PBMC plates were thawed and samples were transferred to PCR plates. The pre-perm staining cocktail (CD3 Ax488/CD8 BUV805/CD14 BUV395/CD16/56 BV711/CD19 BV785) was added to samples and incubated for 30 minutes at room temperature. Samples were washed two times and permeabilized with methanol for 10 minutes at 4° C. Samples were washed two times and the post-perm staining cocktail (CD4 PE/IRAK4 Ax647 BD #560315) was added and incubated for 30 minutes at room temperature. Samples were washed two times with PBS/BSA and run on a BD LSRFortessa. Mononuclear cells are gated by SSCH/FSCH and single cells. Monocytes are then gated through CD14 positive gate and lymphocytes are gated through CD14 negative gate. To determine absolute DC50 and max degradation values, MFI values were normalized to DMSO max and 20 hour 10 µM min control. Twenty hour dose curves were calculated using a 4 parameter logistic regression curve fit, no constraints (Top doses were removed if hook effects were observed and the bottom was constrained to 0).
(§1) IRAK4 MSD degradation in OCI-LY10 results at 4 and 24 hrs and hPBMC at 20 hrs for compounds of the invention are presented in Table 3. The letter codes for IRAK4 DC50 include: A (<0.1 μM), B (0.1-1.0 μM), C(>1.0-10.0 μM), D (>10.0 μM or not determined).

IRAK4 [2] = target: T1, IRAK4; assay: IRAK4 degradation in OCI-LY10 (MSD, Meso Scale Discovery); type: cell-based; set-up: endogenous in cells; host or cells: OCI-LY10; settings: OCI-LY10 cells, 24 h
Description: Degradation of IRAK4 in OCI-LY10 was quantitatively measured using Meso Scale Discovery technology. OCI-LY10 cells were seeded in 96-well plates (Corning 3799) with a density of 300,000 cells per well in 100 μL fresh media. Compounds were then added to the assay plates with a final top concentration of 1 to 10 μM in a 1:3 dilution series with total of 8 doses. The assay plates were then incubated for 4 to 24 hours at 37° C. under 5% CO2. The assay plates were then centrifuged for 5 minutes and the cell pellets were treated with 100 μL/well RIPA lysis buffer (Boston BioProducts BP-115D) with proteinase inhibitors. To prepare MSD assay plates (Meso Scale Discovery Catalog number L15XA-3), the plates were coated with 2 ug/mL capture antibody (mouse Anti-IRAK4 antibody [2H9], ab119942) in PBS, at 40 μL/well. The plates were then incubated overnight at […], washed 3 times with 150 μL/well TBST buffer (Cell Signaling Technology, Catalog number 9997S) and blocked with 150 μL/well blocking buffer (Meso Scale Discovery Catalog number R^93BA-4). Cell lysates were then added to MSD assay plates and the plates were incubated at room temperature for 1 hour. The plates were then washed 3 times with 150 μL/well TBST buffer and 25 μL/well primary detection antibody (rabbit Anti-IRAK4 antibody [Y279], from Abcam. Catalog number ab32511, 1 μg/mL). The assay plates were then incubated at room temperature for 1 hour, washed 3 times with 150 μL/well TBST buffer and 25 μL/well secondary detection antibody, SULFO-TAG anti-rabbit antibody were added (anti-rabbit antibody from Meso Scale Discovery, Catalog number R^32AB-1, 1 μg/mL). The assay plates were then incubated at room temperature for 1 hour, washed 3 times with 150 μL/well TBST buffer, and 150 μL/well MSD reading buffer (Meso Scale Discovery catalog number R^92TC-2) was added. The plates were then analyzed by a MSD reader (Meso Scale Discovery, Model Quick Plex SQ 120). The data was then analyzed by software Prism 7.0 from GraphPad and the dose-depended IRAK4 degradation were fit using a three-parameter logistic equation to calculate DC50.
as §1

In the case of `CC(C)(O)c1cc2nn([C@H]3CC[C@H](CNCCCCCCc4cccc5c(-c6cccc(C(=O)Nc7ccc(=O)n(CC(=O)O)c7)c6)cncc45)CC3)cc2cc1NC(=O)c1cccc(C(F)(F)F)n1` [Compound I-51], the DC50 (IRAK4 [1]) is reported as > 10 µM and the DC50 (IRAK4 [2]) is reported as > 10 µM.

With `CC(C)(O)c1cc2nn([C@H]3CC[C@H](CNCCCCCCc4ccc5c(-c6cccc(C(=O)Nc7ccc(=O)n(CC(=O)O)c7)c6)cncc5c4)CC3)cc2cc1NC(=O)c1cccc(C(F)(F)F)n1` [Compound I-52] the DC50 (IRAK4 [1]) was > 10 µM and the DC50 (IRAK4 [2]) was > 10 µM.

With `CC(C)(O)c1cc2nn([C@H]3CC[C@H](CNCCCCCCCCCc4ccc5c(-c6cccc(C(=O)Nc7ccc(=O)n(CC(=O)O)c7)c6)cncc5c4)CC3)cc2cc1NC(=O)c1cccc(C(F)(F)F)n1` [Compound I-53] the DC50 (IRAK4 [1]) was > 10 µM and the DC50 (IRAK4 [2]) was > 10 µM.

`COC(=O)Cn1cc(NC(=O)c2cccc(-c3cncc4c(CCCCCCCCCNC[C@H]5CC[C@H](n6cc7cc(NC(=O)c8cccc(C(F)(F)F)n8)c(C(C)(C)O)cc7n6)CC5)cccc34)c2)ccc1=O` [Compound I-54] gave a DC50 (IRAK4 [1]) of 1 to 10 µM and a DC50 (IRAK4 [2]) of 1 to 10 µM.

For `COC(=O)Cn1cc(NC(=O)c2cccc(-c3cncc4cc(CCCCCCCCCNC[C@H]5CC[C@H](n6cc7cc(NC(=O)c8cccc(C(F)(F)F)n8)c(C(C)(C)O)cc7n6)CC5)ccc34)c2)ccc1=O` [Compound I-55], the DC50 (IRAK4 [1]) was > 10 µM and the DC50 (IRAK4 [2]) was > 10 µM.

`COC(=O)Cn1cc(NC(=O)c2cccc(-c3cncc4c(CCCCCCNC[C@H]5CC[C@H](n6cc7cc(NC(=O)c8cccc(C(F)(F)F)n8)c(C(C)(C)O)cc7n6)CC5)cccc34)c2)ccc1=O` [Compound I-56] was tested, and the DC50 (IRAK4 [1]) was > 10 µM and the DC50 (IRAK4 [2]) was > 10 µM.

In the case of `COC(=O)Cn1cc(NC(=O)c2cccc(-c3cncc4cc(CCCCCCNC[C@H]5CC[C@H](n6cc7cc(NC(=O)c8cccc(C(F)(F)F)n8)c(C(C)(C)O)cc7n6)CC5)ccc34)c2)ccc1=O` [Compound I-57], the DC50 (IRAK4 [1]) is reported as 1 to 10 µM and the DC50 (IRAK4 [2]) is reported as 1 to 10 µM.

`CC(C)(O)c1cc2nn([C@H]3CC[C@H](CNCCCCCCn4ccc5c(C(=O)Nc6ccc(=O)n(CC(=O)O)c6)cccc54)CC3)cc2cc1NC(=O)c1cccc(C(F)(F)F)n1` [Compound I-58] was tested, and the DC50 (IRAK4 [1]) was > 10 µM and the DC50 (IRAK4 [2]) was > 10 µM.

In the case of `O=C(O)Cn1cc(NC(=O)c2cccc3c2ccn3CCCCCCNC[C@H]2CC[C@H](n3cc(NC(=O)c4cnn5ccc(N6C[C@H]7C[C@@H]6CO7)nc45)c(C(F)F)n3)CC2)ccc1=O` [Compound I-59], the DC50 (IRAK4 [1]) is reported as > 10 µM and the DC50 (IRAK4 [2]) is reported as > 10 µM.

For `CC(C)(O)c1cc2nn([C@H]3CC[C@H](CNCCCCCCCCCC4=CC(c5cccnc5)CC(C(=O)Nc5ccc(=O)n(CC(=O)O)c5)=C4)CC3)cc2cc1NC(=O)c1cccc(C(F)(F)F)n1` (stereo partly drawn) [Compound I-60], the DC50 (IRAK4 [1]) was > 10 µM and the DC50 (IRAK4 [2]) was > 10 µM.

For `CCOC(=O)Cn1cc(NC(=O)c2cccc3c2ccn3CCCCCCNC[C@H]2CC[C@H](n3cc(NC(=O)c4cnn5ccc(N6C[C@H]7C[C@@H]6CO7)nc45)c(C(F)F)n3)CC2)ccc1=O` [Compound I-61], the DC50 (IRAK4 [1]) was 1 to 10 µM and the DC50 (IRAK4 [2]) was > 10 µM.

For `COc1cc(-c2ccc(CCCCCCCCCNC[C@H]3CC[C@H](n4cc(NC(=O)c5cnn6ccc(N7C[C@H]8C[C@@H]7CO8)nc56)c(C(F)F)n4)CC3)cc2)ccc1C(=O)Nc1ccc(=O)n(CC(=O)O)c1` [Compound I-62], the DC50 (IRAK4 [1]) was > 10 µM and the DC50 (IRAK4 [2]) was > 10 µM.

For `COc1cc(-c2ccc(F)c(CCCCCCCCCNC[C@H]3CC[C@H](n4cc5cc(NC(=O)c6cccc(C(F)(F)F)n6)c(C(C)(C)O)cc5n4)CC3)c2)ccc1C(=O)Nc1ccc(=O)n(CC(=O)O)c1` [Compound I-63], the DC50 (IRAK4 [1]) was > 10 µM and the DC50 (IRAK4 [2]) was > 10 µM.

In the case of `CCOC(=O)Cn1cc(NC(=O)c2ccc(-c3ccc(F)c(CCCCCCCCCNC[C@H]4CC[C@H](n5cc6cc(NC(=O)c7cccc(C(F)(F)F)n7)c(C(C)(C)O)cc6n5)CC4)c3)cc2OC)ccc1=O` [Compound I-64], the DC50 (IRAK4 [1]) is reported as > 10 µM and the DC50 (IRAK4 [2]) is reported as 1 to 10 µM.

For `COc1cc(-c2ccc(F)c(CCCCCCCCCNC[C@H]3CC[C@H](n4cc(NC(=O)c5cnn6ccc(N7C[C@H]8C[C@@H]7CO8)nc56)c(C(F)F)n4)CC3)c2)ccc1C(=O)Nc1ccc(=O)n(CC(=O)O)c1` [Compound I-65], the DC50 (IRAK4 [1]) was > 10 µM and the DC50 (IRAK4 [2]) was > 10 µM.

`CCOC(=O)Cn1cc(NC(=O)c2ccc(-c3ccc(F)c(CCCCCCCCCNC[C@H]4CC[C@H](n5cc(NC(=O)c6cnn7ccc(N8C[C@H]9C[C@@H]8CO9)nc67)c(C(F)F)n5)CC4)c3)cc2OC)ccc1=O` [Compound I-66] was tested, and the DC50 (IRAK4 [1]) was > 10 µM and the DC50 (IRAK4 [2]) was 1 to 10 µM.

With `CCOC(=O)Cn1cc(NC(=O)c2ccc(-c3ccc(CCCCCCCCCNC[C@H]4CC[C@H](n5cc(NC(=O)c6cnn7ccc(N8C[C@H]9C[C@@H]8CO9)nc67)c(C(F)F)n5)CC4)cc3)cc2OC)ccc1=O` [Compound I-67] the DC50 (IRAK4 [1]) was > 10 µM and the DC50 (IRAK4 [2]) was > 10 µM.

In the case of `CC(C)(O)c1cc2nn([C@H]3CC[C@H](CNCCCCCCCCCn4ccc5c(C(=O)Nc6ccc(=O)n(CC(=O)O)c6)cccc54)CC3)cc2cc1NC(=O)c1cccc(C(F)(F)F)n1` [Compound I-68], the DC50 (IRAK4 [1]) is reported as 1 to 10 µM and the DC50 (IRAK4 [2]) is reported as > 10 µM.

`CCOC(=O)Cn1cc(NC(=O)c2cccc3c2ccn3CCCCCCCCCNC[C@H]2CC[C@H](n3cc4cc(NC(=O)c5cccc(C(F)(F)F)n5)c(C(C)(C)O)cc4n3)CC2)ccc1=O` [Compound I-69] showed a DC50 (IRAK4 [1]) of 0.1 to 1 µM and a DC50 (IRAK4 [2]) of 0.1 to 1 µM.

`O=C(O)Cn1cc(NC(=O)c2cccc3c2ccn3CCCCCCCCCNC[C@H]2CC[C@H](n3cc(NC(=O)c4cnn5ccc(N6C[C@H]7C[C@@H]6CO7)nc45)c(C(F)F)n3)CC2)ccc1=O` [Compound I-70] was tested, and the DC50 (IRAK4 [1]) was > 10 µM and the DC50 (IRAK4 [2]) was > 10 µM.

With `CCOC(=O)Cn1cc(NC(=O)c2cccc3c2ccn3CCCCCCNC[C@H]2CC[C@H](n3cc4cc(NC(=O)c5cccc(C(F)(F)F)n5)c(C(C)(C)O)cc4n3)CC2)ccc1=O` [Compound I-71] the DC50 (IRAK4 [1]) was > 10 µM and the DC50 (IRAK4 [2]) was > 10 µM.

In the case of `CCOC(=O)Cn1cc(NC(=O)c2cc(CCCCCCCCCNC[C@H]3CC[C@H](n4cc5cc(NC(=O)c6cccc(C(F)(F)F)n6)c(C(C)(C)O)cc5n4)CC3)cc(-c3cccnc3)c2)ccc1=O` [Compound I-72], the DC50 (IRAK4 [1]) is reported as 1 to 10 µM and the DC50 (IRAK4 [2]) is reported as 1 to 10 µM.

With `CCOC(=O)Cn1cc(NC(=O)c2cccc3c2ccn3CCCCCCCCCNC[C@H]2CC[C@H](n3cc(NC(=O)c4cnn5ccc(N6C[C@H]7C[C@@H]6CO7)nc45)c(C(F)F)n3)CC2)ccc1=O` [Compound I-73] the DC50 (IRAK4 [1]) was > 10 µM and the DC50 (IRAK4 [2]) was > 10 µM.

In the case of `O=C(O)Cn1cc(NC(=O)c2cc(CCCCCCCCCNC[C@H]3CC[C@H](n4cc(NC(=O)c5cnn6ccc(N7C[C@H]8C[C@@H]7CO8)nc56)c(C(F)F)n4)CC3)cc(-c3cccnc3)c2)ccc1=O` [Compound I-74], the DC50 (IRAK4 [1]) is reported as > 10 µM and the DC50 (IRAK4 [2]) is reported as > 10 µM.
